Laboratory results published in ChEMBL document CHEMBL1201862, “PubChem BioAssay data set” (2004).
Activity calls are given as the source filed them.

Key:
[1] = biological target: T1, Endoribonuclease toxin MazF (Escherichia coli K-12, UniProt P0AE70); assay: MazF toxin RNase activators, dose response, biochemical, fluorescence, single-stranded RNA substrate, uHTS hits (AID 588481); type: functional
T1 sequence (P0AE70 whole entry): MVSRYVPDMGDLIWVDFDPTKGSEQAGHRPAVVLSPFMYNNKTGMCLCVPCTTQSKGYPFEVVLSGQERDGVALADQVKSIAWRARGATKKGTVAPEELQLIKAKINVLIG

[2] = biological target: T1, Endoribonuclease toxin MazF; assay: fluorescent RNA oligo signal without MazF, dose response, counter-screen for MazEF activator project, biochemical, fluorescence, single-stranded RNase substrate (AID 588502); type: functional
[3] = growth suppression of PTEN-null colon cells, dose response, cell-based, HCT116 PTEN knockout (AID 1047); type: functional;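 further: HCT116 colon tumor cells with PTEN knocked out; cells exposed to compound for 60 hours before readout; potency for loss of cell viability measured by luminescence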
[4] = growth suppression of beta-catenin-knockout colon cells, dose response, cell-based, HCT116, human colon tumor (AID 1045); type: functional;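 further: HCT116 colon tumor cells with beta catenin knocked out; cells exposed to compound for 60 hours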
[5] = biological target: Melanocortin receptor 4 (Homo sapiens, UniProt P32245); type: functional, cell-based;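 further: Cell-based assay with luminescence read-out, confirmatory dose-response testing for agonist activity of biased ligands at MC4R; human U2OS cells with tagged receptor and beta-arrestin; potency of agonists that increase receptor coupling to beta-arrestin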
Sequence of Melanocortin receptor 4 (P32245 whole entry): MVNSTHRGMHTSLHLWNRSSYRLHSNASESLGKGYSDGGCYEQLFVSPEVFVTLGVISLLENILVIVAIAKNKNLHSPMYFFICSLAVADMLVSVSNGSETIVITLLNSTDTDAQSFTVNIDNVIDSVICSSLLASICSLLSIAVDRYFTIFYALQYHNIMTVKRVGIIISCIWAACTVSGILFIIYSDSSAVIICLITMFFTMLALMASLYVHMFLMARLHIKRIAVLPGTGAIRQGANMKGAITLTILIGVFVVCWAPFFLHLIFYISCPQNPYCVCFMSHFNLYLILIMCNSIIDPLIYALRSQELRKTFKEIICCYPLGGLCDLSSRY

[6] = biological target: Cytochrome P450 2C9 (Homo sapiens, UniProt P11712)
Sequence of Cytochrome P450 2C9 (P11712 whole entry): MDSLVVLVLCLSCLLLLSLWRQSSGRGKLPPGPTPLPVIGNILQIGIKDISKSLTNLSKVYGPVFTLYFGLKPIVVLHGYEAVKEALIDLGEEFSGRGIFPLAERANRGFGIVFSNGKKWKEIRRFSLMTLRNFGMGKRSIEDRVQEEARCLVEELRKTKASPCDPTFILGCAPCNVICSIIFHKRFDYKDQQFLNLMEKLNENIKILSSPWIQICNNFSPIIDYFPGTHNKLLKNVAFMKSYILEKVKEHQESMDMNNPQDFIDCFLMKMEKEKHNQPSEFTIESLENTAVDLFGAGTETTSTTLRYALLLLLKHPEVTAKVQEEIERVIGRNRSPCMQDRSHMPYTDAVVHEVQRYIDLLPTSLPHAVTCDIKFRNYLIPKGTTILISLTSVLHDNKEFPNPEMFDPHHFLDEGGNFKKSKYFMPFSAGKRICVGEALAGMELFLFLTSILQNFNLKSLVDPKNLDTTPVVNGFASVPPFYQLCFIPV

[7] = biological target: Cytochrome P450 3A4 (Homo sapiens, UniProt P08684);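 further: CYP3A4 tested as one member of a cytochrome P450 panel screen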
Sequence of Cytochrome P450 3A4 (P08684 whole entry, the tested form may be a part): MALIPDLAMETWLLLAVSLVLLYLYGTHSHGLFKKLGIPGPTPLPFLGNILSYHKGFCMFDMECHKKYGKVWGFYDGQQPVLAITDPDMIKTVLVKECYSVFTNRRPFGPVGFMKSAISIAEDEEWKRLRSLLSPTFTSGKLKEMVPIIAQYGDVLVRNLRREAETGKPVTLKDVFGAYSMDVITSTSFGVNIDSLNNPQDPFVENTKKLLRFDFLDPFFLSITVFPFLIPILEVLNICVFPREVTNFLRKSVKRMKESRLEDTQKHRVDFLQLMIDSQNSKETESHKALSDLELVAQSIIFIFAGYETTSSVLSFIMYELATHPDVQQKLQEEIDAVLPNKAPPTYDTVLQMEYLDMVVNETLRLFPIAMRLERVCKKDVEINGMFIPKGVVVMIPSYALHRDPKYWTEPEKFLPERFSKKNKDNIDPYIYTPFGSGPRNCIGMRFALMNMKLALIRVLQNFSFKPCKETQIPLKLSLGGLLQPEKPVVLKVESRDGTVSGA

[8] = biological target: T2, RNA-binding protein pos-1 (Caenorhabditis elegans, UniProt G5EF15); assay: inhibitors of POS-1/mex-3 RNA binding, dose response, biochemical, fluorescence polarization (AID 1964);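 further: purified POS-1 fused to maltose binding protein made in E. coli; potency of compounds blocking POS-1 binding to fluorescent RNA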
T2 sequence (G5EF15 whole entry): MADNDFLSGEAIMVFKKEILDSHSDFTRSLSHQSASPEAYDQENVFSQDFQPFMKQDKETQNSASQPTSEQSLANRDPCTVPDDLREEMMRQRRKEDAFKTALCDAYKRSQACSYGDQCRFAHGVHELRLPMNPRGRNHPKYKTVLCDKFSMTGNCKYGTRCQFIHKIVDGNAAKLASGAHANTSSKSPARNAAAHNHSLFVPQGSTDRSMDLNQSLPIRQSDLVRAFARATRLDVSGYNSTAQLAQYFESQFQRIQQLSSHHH

[9] = biological target: T3, Zinc finger protein mex-5 (Caenorhabditis elegans, UniProt Q9XUB2); assay: MEX-5/TCR-2 RNA interaction inhibitors, dose response, biochemical, C. elegans, fluorescence polarization (AID 1960)
T3 sequence (Q9XUB2 whole entry): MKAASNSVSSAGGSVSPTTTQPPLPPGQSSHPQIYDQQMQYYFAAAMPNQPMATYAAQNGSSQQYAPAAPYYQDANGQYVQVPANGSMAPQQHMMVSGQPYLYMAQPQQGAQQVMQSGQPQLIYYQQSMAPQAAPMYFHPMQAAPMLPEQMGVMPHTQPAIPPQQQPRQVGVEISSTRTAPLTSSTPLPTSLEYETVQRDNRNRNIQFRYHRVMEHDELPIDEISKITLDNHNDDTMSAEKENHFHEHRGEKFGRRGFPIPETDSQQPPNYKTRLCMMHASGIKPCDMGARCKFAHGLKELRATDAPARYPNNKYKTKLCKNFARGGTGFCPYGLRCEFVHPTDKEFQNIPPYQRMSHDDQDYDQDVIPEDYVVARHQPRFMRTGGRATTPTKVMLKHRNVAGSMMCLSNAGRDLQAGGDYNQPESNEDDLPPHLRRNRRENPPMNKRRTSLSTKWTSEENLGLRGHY

[10] = biological target: Eukaryotic translation initiation factor 4E (Mus musculus, UniProt P63073); assay: eIF4E–eIF4G protein interaction inhibitors, dose response, biochemical, TR-FRET (AID 855); type: functional;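 further: potency for disrupting eIF4E binding to eIF4GI seen as loss of FRET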
Sequence of Eukaryotic translation initiation factor 4E (P63073 whole entry): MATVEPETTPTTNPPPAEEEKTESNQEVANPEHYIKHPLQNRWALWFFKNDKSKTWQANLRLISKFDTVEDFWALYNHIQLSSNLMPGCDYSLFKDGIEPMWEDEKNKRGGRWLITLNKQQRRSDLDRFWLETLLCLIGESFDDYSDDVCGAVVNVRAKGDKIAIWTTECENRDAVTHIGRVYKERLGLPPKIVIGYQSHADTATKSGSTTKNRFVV

[11] = biological target: T4, Coagulation factor XII (Homo sapiens, UniProt P00748); type: functional;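 further: activated factor XIIa alpha cleaving a fluorogenic AMC peptide substrate; inhibitor potency from loss of enzyme activity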
T4 sequence (P00748 whole entry): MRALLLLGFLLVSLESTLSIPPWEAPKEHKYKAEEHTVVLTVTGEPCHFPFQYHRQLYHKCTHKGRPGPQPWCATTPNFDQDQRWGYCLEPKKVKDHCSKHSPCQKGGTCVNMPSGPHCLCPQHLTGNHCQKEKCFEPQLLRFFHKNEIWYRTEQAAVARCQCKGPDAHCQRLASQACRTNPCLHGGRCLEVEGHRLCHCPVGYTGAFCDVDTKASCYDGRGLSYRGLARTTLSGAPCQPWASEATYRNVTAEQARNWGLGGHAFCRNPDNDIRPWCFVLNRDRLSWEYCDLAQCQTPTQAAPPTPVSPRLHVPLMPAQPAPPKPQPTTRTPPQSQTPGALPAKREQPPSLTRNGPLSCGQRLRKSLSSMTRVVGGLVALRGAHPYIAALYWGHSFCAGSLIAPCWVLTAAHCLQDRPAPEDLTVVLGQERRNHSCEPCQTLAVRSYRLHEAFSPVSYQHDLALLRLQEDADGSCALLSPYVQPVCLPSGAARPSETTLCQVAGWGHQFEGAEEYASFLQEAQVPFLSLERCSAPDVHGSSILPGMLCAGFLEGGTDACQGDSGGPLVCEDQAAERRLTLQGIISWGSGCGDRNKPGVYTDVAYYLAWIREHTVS

[12] = Luminescence Cell-Based Dose Retest to Confirm Inhibitors of Cancer Stem Cells. [Related pubchem assays (depositor defined):AID2717, AID2721]; type: functional; conditions: Homo sapiens
[13] = biological target: Protein Wnt-3a (Mus musculus, UniProt P27467); assay: Wnt3a-driven reporter signaling inhibition, dose response, selectivity assay for Gli-SUFU antagonist project, Wnt-LIGHT cells, luminescence (AID 651570); type: functional; conditions: read-out: IC50_Mean;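 further: Wnt-LIGHT reporter cells stimulated with conditioned medium from Wnt3a-producing cells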
Sequence of Protein Wnt-3a (P27467 whole entry): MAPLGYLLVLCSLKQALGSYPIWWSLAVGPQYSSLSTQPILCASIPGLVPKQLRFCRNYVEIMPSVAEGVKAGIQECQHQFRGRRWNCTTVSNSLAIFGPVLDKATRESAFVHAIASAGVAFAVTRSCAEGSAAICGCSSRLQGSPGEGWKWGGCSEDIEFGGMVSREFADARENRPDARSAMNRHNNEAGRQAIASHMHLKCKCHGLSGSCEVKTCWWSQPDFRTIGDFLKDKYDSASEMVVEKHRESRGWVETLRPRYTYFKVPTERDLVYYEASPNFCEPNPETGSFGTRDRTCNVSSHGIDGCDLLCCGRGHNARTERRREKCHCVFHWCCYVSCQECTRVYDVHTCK

[14] = tested on: INS1; assay: beta cell apoptosis inhibitors, cytokine rescue, dose response, luminescence, retest (AID 449756); type: functional, cell-based; conditions: Rattus norvegicus;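 further: cell death triggered by IL-1 beta plus TNF-alpha plus IFN-gamma mixture; protective hits raise ATP signal compared with cytokine alone wells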
[15] = Shn3 3'UTR reporter inhibitors, dose response, cell-based, Clone20 osteoblasts, firefly luciferase, cherry-picked (AID 624132); type: functional;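 further: firefly luciferase luminescence from reporter carrying the Shn3 3'UTR in osteoblasts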
[16] = HepG2 cell cytotoxicity, dose response, cytotoxicity control for Shn3 inhibitor project, CellTiter-Glo, cherry-picked (AID 624134); type: functional, cell-based
[17] = biological target: T5, Cytochrome P450 1A2 (Homo sapiens, UniProt P05177);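 further: PubChem cytochrome P450 panel assay, CYP1A2 panel member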
T5 sequence (P05177 whole entry): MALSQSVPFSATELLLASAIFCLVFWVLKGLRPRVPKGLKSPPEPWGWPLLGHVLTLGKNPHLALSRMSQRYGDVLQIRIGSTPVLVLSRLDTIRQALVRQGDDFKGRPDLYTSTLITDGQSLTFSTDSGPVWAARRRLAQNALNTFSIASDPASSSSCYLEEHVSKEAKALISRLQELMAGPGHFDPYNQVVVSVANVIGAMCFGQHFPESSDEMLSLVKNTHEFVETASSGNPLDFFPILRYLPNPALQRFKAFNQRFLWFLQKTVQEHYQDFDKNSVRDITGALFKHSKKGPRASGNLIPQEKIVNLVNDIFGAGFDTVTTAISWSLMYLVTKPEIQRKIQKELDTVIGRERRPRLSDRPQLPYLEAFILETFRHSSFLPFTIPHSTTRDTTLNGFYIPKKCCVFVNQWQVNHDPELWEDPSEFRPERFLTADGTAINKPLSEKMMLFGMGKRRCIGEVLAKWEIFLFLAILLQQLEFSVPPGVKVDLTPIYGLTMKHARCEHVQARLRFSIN

[18] = biological target: T6, DNA repair and recombination protein RAD54-like (Homo sapiens, UniProt Q92698); assay: inhibitors of human RAD54 branch migration, confirmation, biochemical, fluorescence, cherry-picked samples, dose series (AID 651657); type: functional
T6 sequence (Q92698 whole entry): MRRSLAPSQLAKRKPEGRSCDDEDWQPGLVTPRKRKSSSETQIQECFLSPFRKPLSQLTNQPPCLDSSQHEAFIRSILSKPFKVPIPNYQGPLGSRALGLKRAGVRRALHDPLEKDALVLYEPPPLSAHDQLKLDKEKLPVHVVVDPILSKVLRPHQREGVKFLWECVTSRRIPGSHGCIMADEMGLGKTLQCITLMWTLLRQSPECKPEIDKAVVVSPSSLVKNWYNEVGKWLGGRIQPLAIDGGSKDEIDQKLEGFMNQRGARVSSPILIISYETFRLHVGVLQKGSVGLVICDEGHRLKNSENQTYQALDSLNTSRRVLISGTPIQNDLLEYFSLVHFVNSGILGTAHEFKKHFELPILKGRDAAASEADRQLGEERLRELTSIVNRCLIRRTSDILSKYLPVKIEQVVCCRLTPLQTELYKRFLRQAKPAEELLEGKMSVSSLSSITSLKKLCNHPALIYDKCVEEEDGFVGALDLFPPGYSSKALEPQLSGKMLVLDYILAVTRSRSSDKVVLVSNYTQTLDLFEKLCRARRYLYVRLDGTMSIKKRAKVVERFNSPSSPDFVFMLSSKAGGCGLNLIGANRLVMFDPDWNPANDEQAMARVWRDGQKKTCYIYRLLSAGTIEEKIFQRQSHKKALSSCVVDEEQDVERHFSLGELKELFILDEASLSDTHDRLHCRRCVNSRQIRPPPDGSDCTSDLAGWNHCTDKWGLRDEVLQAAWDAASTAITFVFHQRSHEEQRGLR

[19] = biological target: Cytochrome P450 2D6 (Homo sapiens, UniProt P10635);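 further: CYP2D6 member of a cytochrome P450 panel assay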
Sequence of Cytochrome P450 2D6 (P10635 whole entry): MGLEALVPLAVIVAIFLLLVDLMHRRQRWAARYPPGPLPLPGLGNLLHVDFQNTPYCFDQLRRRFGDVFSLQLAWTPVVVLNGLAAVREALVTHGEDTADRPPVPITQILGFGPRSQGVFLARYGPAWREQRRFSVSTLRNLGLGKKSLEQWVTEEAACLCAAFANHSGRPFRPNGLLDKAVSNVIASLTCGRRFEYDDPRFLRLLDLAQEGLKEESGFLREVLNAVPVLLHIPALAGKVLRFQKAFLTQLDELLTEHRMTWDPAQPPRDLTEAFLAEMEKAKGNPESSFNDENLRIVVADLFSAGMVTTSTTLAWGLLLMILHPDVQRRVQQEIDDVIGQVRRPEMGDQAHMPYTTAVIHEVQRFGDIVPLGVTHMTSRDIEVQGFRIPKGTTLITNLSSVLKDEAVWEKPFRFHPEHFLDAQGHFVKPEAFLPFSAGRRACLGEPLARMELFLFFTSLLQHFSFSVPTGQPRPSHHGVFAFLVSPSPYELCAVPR

[20] = biological target: T7, Heat shock factor protein 1 (Mus musculus, UniProt P38532); assay: inhibition of MG132-induced HSE-luciferase signal, confirmation, cell-based, NIH3T3, luminescence, dose retest (AID 2382); type: functional;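 further: NIH3T3 fibroblasts with HSF1-driven luciferase reporter stressed by proteasome inhibitor MG132; luminescence from HSF1-driven luciferase expression after 8 hours of MG132 stress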
T7 sequence (P38532 whole entry): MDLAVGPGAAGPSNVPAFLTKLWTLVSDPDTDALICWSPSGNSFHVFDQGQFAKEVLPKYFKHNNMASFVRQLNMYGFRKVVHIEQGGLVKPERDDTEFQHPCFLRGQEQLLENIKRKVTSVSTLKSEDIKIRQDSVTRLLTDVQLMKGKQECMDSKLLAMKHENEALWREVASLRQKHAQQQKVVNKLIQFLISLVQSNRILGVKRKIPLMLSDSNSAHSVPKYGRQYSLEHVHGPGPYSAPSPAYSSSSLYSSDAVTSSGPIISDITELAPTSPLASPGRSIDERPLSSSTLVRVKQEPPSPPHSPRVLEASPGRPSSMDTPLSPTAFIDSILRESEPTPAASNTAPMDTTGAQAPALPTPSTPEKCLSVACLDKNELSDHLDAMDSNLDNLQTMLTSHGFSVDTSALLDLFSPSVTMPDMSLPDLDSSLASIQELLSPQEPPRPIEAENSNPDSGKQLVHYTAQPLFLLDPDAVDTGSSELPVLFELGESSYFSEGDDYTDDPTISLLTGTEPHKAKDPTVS

[21] = tested on: H9c2; assay: cells; type: functional, cell-based; conditions: Rattus norvegicus, H9c2, Myocardium;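 further: confirmatory concentration-response retest of ultra-high-throughput screening hits for modulation of myocardial damage; cell death induced by hydrogen peroxide oxidative stress; compound pretreatment for 60 min then peroxide exposure for 2 h; potency is for protecting the cells against peroxide damage rather than for killing them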
[22] = Fluorescence-based cell-based high throughput dose response assay for inhibitors of the interaction of nucleotide-binding oligomerization domain containing 2 (NOD2) and the receptor-interacting serine-threonine kinase 2 (RIPK2).; type: functional; conditions: Homo sapiens

CCN(CC)S(=O)(=O)c1ccc(Cl)c(NC(=O)c2cc(Cl)ccc2Cl)c1
EC50 [1]: > 99 µM (inactive) | EC50 [2]: > 99 µM (inactive)

Cc1ccc(-c2nnc(-c3ccc(NC(=O)Cc4cccs4)cc3)o2)cc1
EC50 [3]: 5.97 µM (active) | EC50 [4]: 4.87 µM (active) | EC50 [5]: > 89.2 µM (inactive)

CC(=O)CC(=O)[C@@]1(O)CC[C@@H]2[C@@H]3C=C(C)C4=CC(=O)CC[C@@H]4[C@H]3CC[C@]21C
AC50 [6]: 12.6 µM (inconclusive) | AC50 [7]: inconclusive

O=C(c1ccc(Cl)cc1)N1CCN(C(=O)c2ccco2)CC1
AC50 [7]: inconclusive

COc1ccc(C2c3cc(OC)c(OC)cc3CCN2S(C)(=O)=O)cc1OC (centres undefined)
EC50 [8]: > 300 µM (not active) | EC50 [9]: > 300 µM (not active) | IC50 [10]: 50 µM (inactive) | IC50 [11]: > 50 µM (inactive)

C/C=C1\C(=O)C[C@@H]2[C@@H]3CCC4=CC(=O)CC[C@@]4(C)[C@H]3CC[C@@]12C
AC50 [6]: 39.8 µM (inconclusive) | AC50 [7]: inconclusive

CCOC(=O)Cc1csc(NC(=O)c2sc3nc4cc(C)ccc4cc3c2N)n1
EC50 [8]: 27.2 µM (inconclusive) | EC50 [9]: 1.62 µM (inconclusive) | EC50 [5]: > 89.2 µM (inactive)

O=S(=O)(NCc1ccncc1)c1ccc(S(=O)(=O)NCC2CCCO2)cc1 (centres undefined)
AC50 [12]: 0.973 µM (active) | IC50 [13]: 7.09 µM (active)

COc1ccc(NS(=O)(=O)c2cccc(NC(=O)c3ccc(S(=O)(=O)N4CCCCCC4)cc3)c2)cc1
AC50 [14]: 3.12 µM (active) | AC50 [15]: 0.829 µM (active) | AC50 [16]: 38.8 µM (active) | IC50 [13]: 1.76 µM (active)

CC(=O)c1cc2c(C)c(C(=O)c3ccccc3)oc2cc1O
EC50 [1]: > 99 µM (inactive) | EC50 [2]: > 99 µM (inactive)

COCCNc1cc(-c2ccccc2C(F)(F)F)ncn1
AC50 [17]: 15.8 µM (inconclusive) | AC50 [7]: inconclusive

CN1CCN(c2nc(-c3ccncc3)nc3ccccc23)CC1
AC50 [18]: 8.41 µM (active)

CCOC(=O)c1ccc2c(c1)nc(C1CCN(S(=O)(=O)c3cccs3)CC1)n2CC
IC50 [11]: > 50 µM (inactive)

NC1=Nc2ccccc2Oc2ccccc21
AC50 [19]: 20 µM (inconclusive) | AC50 [7]: inconclusive

O=C(O)CC1(CC(=O)NCc2ccncc2)CCCCC1
IC50 [11]: > 50 µM (inactive)

Cc1cc(O)c(/C=N/c2ccc(N3CCOCC3)cc2)c(C)c1Cl
EC50 [20]: > 195 µM (not active) | EC50 [1]: 53.5 µM (inactive) | IC50 [21]: > 79 µM (inactive) | EC50 [2]: > 99 µM (inactive)

CC(=O)Nc1cc(-c2ccccc2N(C)C)cn2c(-c3ccccc3)cnc12
EC50 [5]: > 89.2 µM (inactive)

CCOC(=O)[C@]12Cc3cc(OC)ccc3[C@H]1N(C1CCCCC1)C(=O)c1cc(OC)ccc12
IC50 [22]: 4.81 µM (active)

Cc1cc(C)n(/N=C/c2ccccc2)c(=O)c1C#N
IC50 [11]: > 50 µM (inactive)
